Data published in patent US6914045B2, “Glycopeptide antibiotics” (Wyeth Holdings Corporation, priority 2001, dated 2005).

Tests used:
Staphylococcus sp. = experiment: in vitro antibacterial evaluation, MIC by broth dilution; format: cell-based; settings: broth dilution, 18 hours at 35° C.; for MIC Staphylococcus aureus (GC 1131): strain GC 1131
Procedure, shortened: (§1)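 Inoculum 5×10^5 CFU/mL; concentrations 64 to 0.06 μg/mL; MIC defined as lowest inhibitory level. Conducted by broth dilution under NCCLS guidelines.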

Escherichia coli = experiment: as above; format: cell-based
Procedure, shortened: as §1

Enterococcus sp. = experiment: as above; format: cell-based; settings: broth dilution, 18 hours at 35° C.; for MIC Enterococcus faecalis (ATCC 29212): strain ATCC 29212; for MIC Enterococcus faecium (GC 2243): strain GC 2243; for MIC Enterococcus faecalis (GC 4552): strain GC 4552; for MIC Enterococcus faecalis (GC 4553): strain GC 4553; for MIC Enterococcus faecalis (GC 4554): strain GC 4554; for MIC Enterococcus faecium (GC 4556): strain GC 4556; for MIC Enterococcus faecium (GC 4557): strain GC 4557; for MIC Enterococcus avium (GC 4558): strain GC 4558; for MIC Enterococcus faecalis (GC 6189): strain GC 6189
Procedure, shortened: as §1

Streptococcus sp. = experiment: as above; format: cell-based; settings: broth dilution, 18 hours at 35° C.
Procedure, shortened: as §1

[1] = system: Staphylococcus aureus-SMITH (GC 4543); experiment: acute lethal infection in mice; format: in vivo; settings: acute lethal infection, female CD-1 mice, intraperitoneal challenge, intravenous 30 min. after infection, 7 day survival
Procedure, shortened: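 ED50 from 7 day survival ratios pooled over 3 separate tests. Female CD-1 mice, 20+/−2 gm, ip bacterial challenge (trypticase soy broth or hog gastric mucin) lethal to untreated controls in 24-48 hr; iv dosing 30 min after infection in saline or 5% dextrose, n=5/dose.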

CC(c1ccccc1)C1NC(=O)CNC(=O)C(CO)NC(=O)C(C(O)C2CNC(=N)N2C2OC(CO)C(O)C(O)C2O)NC(=O)C(C(O)C2CNC(=N)N2)NC(=O)C(Cc2ccc(OC3OC(CO)C(OC4OC5COC(c6cc7c(cc6Cl)OCO7)OC5C(O)C4O)C(O)C3O)cc2)NC1=O (stereo not drawn) [Example 158, Cyclo[glycyl-β-methylphenylalanyl-O-[4-O-[4,6-O-[(6-chloro-1,3-benzodioxol-5-yl)-methylene]hexopyranosyl]hexopyranosyl]tyrosyl-3-(2-iminoimidazolidin-4-yl)seryl-3-(3-hexopyranosyl-2-iminoimidazolidin-4-yl)serylseryl]]
1 µg/mL: MIC Staphylococcus aureus (GC 3051) (Staphylococcus sp.; strain GC 3051) | MIC Staphylococcus aureus (GC 4541) (Staphylococcus sp.; strain GC 4541) | MIC Staphylococcus aureus (GC 4542) (Staphylococcus sp.; strain GC 4542) | MIC Coagulase Negative Staphylococcus (GC 4548) (Staphylococcus sp.; strain GC 4548) | MIC Coagulase Negative Staphylococcus (GC 4549) (Staphylococcus sp.; strain GC 4549) | MIC Coagulase Negative Staphylococcus (GC 6257) (Staphylococcus sp.; strain GC 6257) | MIC Escherichia coli (GC 4560) (Escherichia coli; strain GC 4560, 18 hours at 35° C.)
0.25 µg/mL: MIC Streptococcus agalactiae (GC 4564) (Streptococcus sp.; Streptococcus agalactiae (GC 4564)) | MIC Streptococcus pyogenes (GC 4563) (Streptococcus sp.; Streptococcus pyogenes (GC 4563)) | MIC Streptococcus pyogenes (GC 4563) (Streptococcus sp.; strain GC 4563) | MIC Streptococcus agalactiae (GC 4564) (Streptococcus sp.; strain GC 4564)
8 µg/mL: MIC Enterococcus faecalis (GC 4552) (Enterococcus sp.; inoculum 5×10^5 CFU/mL) | MIC Enterococcus faecium (GC 4556) (Enterococcus sp.; inoculum 5×10^5 CFU/mL) | MIC Enterococcus faecalis (GC 4552) (Enterococcus sp.) | MIC Enterococcus faecium (GC 4556) (Enterococcus sp.)
<0.06 µg/mL: MIC Streptococcus pneumoniae (GC 1894) (Streptococcus sp.; Streptococcus pneumoniae (GC 1894)) | MIC Streptococcus pneumoniae (GC 4565) (Streptococcus sp.; Streptococcus pneumoniae (GC 4565)) | MIC Streptococcus pneumoniae (GC 1894) (Streptococcus sp.; strain GC 1894) | MIC Streptococcus pneumoniae (GC 4565) (Streptococcus sp.; strain GC 4565)
0.14 mg/kg: median effective dose (ED50), Staphylococcus aureus-SMITH (GC 4543) [1]
0.12 µg/mL: MIC Streptococcus pneumoniae (ATCC 6301) (Streptococcus sp.; Streptococcus pneumoniae (ATCC 6301)) | MIC Streptococcus pneumoniae (ATCC 6301) (Streptococcus sp.; strain ATCC 6301)
4 µg/mL: MIC Enterococcus faecalis (GC 2242) (Enterococcus sp.; Enterococcus faecalis (GC 2242)) | MIC Enterococcus faecalis (GC 2691) (Enterococcus sp.; Enterococcus faecalis (GC 2691)) | MIC Enterococcus faecalis (GC 3059) (Enterococcus sp.; Enterococcus faecalis (GC 3059)) | MIC Enterococcus faecalis (ATCC 29212) (Enterococcus sp.; inoculum 5×10^5 CFU/mL) | MIC Enterococcus faecium (GC 2243) (Enterococcus sp.; inoculum 5×10^5 CFU/mL) | MIC Enterococcus faecalis (GC 4553) (Enterococcus sp.; inoculum 5×10^5 CFU/mL) | MIC Enterococcus faecalis (GC 4554) (Enterococcus sp.; inoculum 5×10^5 CFU/mL) | MIC Enterococcus avium (GC 4558) (Enterococcus sp.; inoculum 5×10^5 CFU/mL) | MIC Enterococcus faecalis (GC 6189) (Enterococcus sp.; inoculum 5×10^5 CFU/mL) | MIC Enterococcus faecalis (ATCC 29212) (Enterococcus sp.) | MIC Enterococcus faecalis (GC 2242) (Enterococcus sp.; strain GC 2242) | MIC Enterococcus faecium (GC 2243) (Enterococcus sp.) | MIC Enterococcus faecalis (GC 2691) (Enterococcus sp.; strain GC 2691) | MIC Enterococcus faecalis (GC 3059) (Enterococcus sp.; strain GC 3059) | MIC Enterococcus faecalis (GC 4553) (Enterococcus sp.) | MIC Enterococcus faecalis (GC 4554) (Enterococcus sp.) | MIC Enterococcus avium (GC 4558) (Enterococcus sp.) | MIC Enterococcus faecalis (GC 6189) (Enterococcus sp.)
0.5 µg/mL: MIC Staphylococcus haemolyticus (GC 4546) (Staphylococcus sp.; strain GC 4546)
64 µg/mL: MIC Escherichia coli (ATCC 25922) (Escherichia coli; strain ATCC 25922, 18 hours at 35° C.) | MIC Escherichia coli (GC 4559) (Escherichia coli; strain GC 4559, 18 hours at 35° C.)
2 µg/mL: MIC Staphylococcus aureus (GC 1131) (Staphylococcus sp.; inoculum 5×10^5 CFU/mL) | MIC Staphylococcus aureus (ATCC 29213) (Staphylococcus sp.; strain ATCC 29213) | MIC Staphylococcus aureus (GC 1131) (Staphylococcus sp.) | MIC Staphylococcus aureus (GC 3053) (Staphylococcus sp.; strain GC 3053) | MIC Staphylococcus aureus-SMITH (GC 4543) (Staphylococcus sp.; strain GC 4543) | MIC Staphylococcus aureus (GC 4544) (Staphylococcus sp.; strain GC 4544) | MIC Staphylococcus aureus (GC 4545) (Staphylococcus sp.; strain GC 4545) | MIC Coagulase Negative Staphylococcus (GC 4547) (Staphylococcus sp.; strain GC 4547) | MIC Coagulase Negative Staphylococcus (GC 4551) (Staphylococcus sp.; strain GC 4551) | MIC Staphylococcus aureus-SMITH (GC 4543) (Staphylococcus sp.; strain SMITH GC 4543) | MIC Enterococcus faecium (GC 4557) (Enterococcus sp.; inoculum 5×10^5 CFU/mL) | MIC Enterococcus faecium (GC 4557) (Enterococcus sp.)
